# According to US9359418B2, “Inhibitors of the T cell-specific alternative p38 activation pathway and methods of use” (The United States of America, as represented by the …, priority 2012, dated 2016):
# Experiments:
# KPC mice = assay: KPC mice, PanIN progression and cancer formation after intravenous treatment; assay type: in vivo
# Description: FIGS. 13A-13D are graphs showing that (11R)-71-85 inhibits PanIN and cancer formation in KPC mice. (FIG. 13A) KPC mice were sub-lethally irradiated at 6 weeks of age and packed with 10×10^6 hematopoietic bone marrow cells and the survival was monitored (n=5 per group; *p<0.05, Log-rank test). (FIG. 13B) Quantification of normal ducts and PanIN of KPC mice treated as in (A) (n=6 per group). (FIG. 13C) CD4^+ T cells infiltrated in the pancreas were analyzed for TNFα and IFNγ expression by flow cytometry after treatment with (11R) 71-85 or (11R) Scr. Bar graphs show the average percentage of indicated cytokine secreting cells. (n=8 per group; *p<0.05, NS=not significant, unpaired two-tailed Student's t-test). (FIG. 13D) KPC mice were treated as in (A) and the expression of different tumor promoting factors was analyzed in isolated pancreatic epithelial cells by quantitative real-time PCR (n=6 per group).
# KPC mice provide a genetic model of murine pancreatic tumors that closely mimics the human disease. KPC (KrasG12D/^+; LSLTrp53R172H/^+; Pdx-1-Cre) mice express K-ras in pancreatic epithelium, and when made heterozygous for p53, develop spontaneous tumors starting at approximately 8-10 weeks of age (Hingorani et al., Cancer Cell 7(5):469-483, 2005). This involves the formation of pancreatic intraepithelial neoplasia precursor lesions (PanIN) and progression to fully-developed carcinoma with surrounding stromal and inflammatory reactions (Hingorani et al., Cancer Cell 7(5):469-483, 2005).
# Given these findings, further experiments were conducted to determine if inhibition of the alternative pathway in KPC mice would alter disease progression. KPC mice were treated with intravenous (11R)-71-85 or (11R)-Scrambled starting at 9 weeks of age, and the pancreas was histologically evaluated 3.5 weeks later. Thirty-three percent (2 of 6) of mice treated with (11R)-Scrambled developed invasive carcinoma in the pancreas. […] In line with the reduced TNFα secretion, Irf4 mRNA expression was decreased in CD4^+ TILs after (11R)-71-85 treatment. […] The fact that early stage PanIN formation was present, but later pre-invasive stages were reduced, in (11R)-71-85-treated mice supports a role for T cell-derived TNFα in the progression of PanIN towards invasive carcinoma.
# CD4+ T cells = assay: Cellular uptake of FITC conjugated peptides by purified CD4+ T cells; assay type: cell-based; conditions: FITC conjugated peptide, 2 hours at 37° C., flow cytometry
# Description: FIG. 1 is a graph showing cellular uptake of (11R)-71-85 and (11R)-Ctrl. Purified CD4^+ T cells were treated with either FITC conjugated (11R)-71-85 or (11R)-Ctrl, or left untreated for 2 hours at 37° C. After incubation, cells were washed and analyzed by flow cytometry for FITC positivity.
# To generate a cell-permeable form of the Gadd45α 71-85 peptide, 11 arginine residues were added to the N-terminus to produce a fusion protein referred to herein as (11R)-71-85. Cell-permeability of (11R)-71-85 was tested using purified CD4^+ T cells. (11R)-71-85 and a control peptide fused to 11 arginine residues (referred to as (11R)-Ctrl) were FITC conjugated. Purified CD4^+ T cells were treated with either FITC conjugated (11R)-71-85 or (11R)-Ctrl, or left untreated for 2 hours at 37° C. After incubation, cells were washed and analyzed by flow cytometry for FITC positivity.
# T cells = assay: T cell proliferation after anti-CD3 and anti-CD28 stimulation; assay type: cell-based; conditions: 0.2, 0.5, 1.0, 2.0 or 4.0 μg; anti-CD3 and anti-CD28 for 2 days
# Description: FIG. 3 is a graph showing T cell proliferation in response to (11R)-71-85. T cells were purified from spleen and treated with different concentrations of (11R)-71-85 or control peptide (11R)-Ctrl. Cells were then washed and stimulated with anti-CD3 and anti-CD28 for 2 days and finally pulsed with 1 μCi [^3H]-thymidine 14 hours before harvesting. [^3H]-thymidine uptake was determined with a Wallac 1450 MicroBeta Liquid Scintillation Counter.
# The ability of (11R)-71-85 to inhibit T cell proliferation and inflammatory cytokine production was also evaluated. T cells were purified from spleen and treated with different concentrations (0.2, 0.5, 1.0, 2.0 or 4.0 μg) of (11R)-71-85 or the control peptide (11R)-Ctrl. Cells were then washed and stimulated with anti-CD3 and anti-CD28 for 2 days and finally pulsed with 1 μCi [^3H]-thymidine 14 hours before harvesting. [^3H]-thymidine uptake was determined with a Wallac 1450 MicroBeta Liquid Scintillation Counter.
# [1] = test system: tumor-infiltrating T cells; assay: PANC02 model, cytokine expression of tumor infiltrating cells; assay type: in vivo, mice; conditions: 80 μg intra-tumor every other day for 1 week
# Description: WT C57BL/6 mice were injected with 7.5×10^5 PANC02 cells. After 16 days, mice were injected with 80 μg of either (11R)-71-85 or (11R)-Scrambled (Scr) every other day for 1 week. Twenty-four hours after the last intra-tumor injection, tumor infiltrating cells were harvested and restimulated with PMA and ionomycin, or left unstimulated, in the presence of Golgi inhibitor for 4 hours. Expression of cytokines (IL-17A and TNFα—FIG. 10A; IL-10 and IFNγ—FIG. 10B) was determined by flow cytometry.
# The effect of intra-tumor injection of (11R)-71-85 on cytokine secretion from tumor-infiltrating T cells was also evaluated in mice with pancreatic tumors. WT C57BL/6 mice were injected with 7.5×10^5 PANC02 cells and 16 days later mice received intra-tumor injections of 80 μg of (11R)-71-85 or (11R)-Scrambled every other day for 1 week. Twenty-four hours following the last injection, tumor infiltrating cells were harvested and restimulated with PMA and ionomycin, or left unstimulated, in the presence of Golgi inhibitor for 4 hours. Expression of TNF-α, IFNγ, IL-10 and IL-17 was determined by flow cytometry. […] There was no difference in TNF-α secretion after restimulation, which bypasses TCR signaling and activates the classical MAPK cascade. There was no difference between unstimulated and restimulated cells for the other cytokines tested (IFNγ, IL-10, and IL-17; FIGS. 10A-10B).
# [2] = intravenous, compared to control
substance,measurement,setting,value
"(11R)-71-85: fusion protein: 11 arginine residues added to the N-terminus of the Gadd45α 71-85 peptide (LQIHFTLIQAFCCEN; N-terminal 11 arginine; UniProt P24522 71-85, looked up, fragment)",Irf4 mRNA expression in CD4+ TILs,KPC mice; intravenous,decreased
same,"progression towards high grade PanIN formation (PanIN3, carcinoma in situ)","KPC mice; intravenous from 9 weeks of age, 3.5 weeks",slowed
same,mice that developed invasive carcinoma in the pancreas,"KPC mice; intravenous from 9 weeks of age, histology 3.5 weeks later",no mice
same,intrapancreatic fibro-inflammatory reaction (H&E),"KPC mice; intravenous, compared to (11R)-Scrambled",reduced
same,CD4+ tumor infiltrating lymphocytes expressing TNFα,KPC mice; [2],reduced numbers
same,expression of IFNγ in CD4+ tumor infiltrating lymphocytes,KPC mice; [2],slightly reduced
same,expression of Cc12 in pancreatic epithelial cells,KPC mice; quantitative real-time PCR,reduced
same,expression of Cc15 in pancreatic epithelial cells,KPC mice; quantitative real-time PCR,reduced
same,expression of Tgfβ in pancreatic epithelial cells,KPC mice; quantitative real-time PCR,reduced
same,expression of Vegf in pancreatic epithelial cells,KPC mice; quantitative real-time PCR,reduced
same,cellular uptake (FITC positivity),CD4+ T cells,taken up by the T cells
same,T cell proliferation ([3H]-thymidine uptake) in response to TCR stimulation,T cells,dose-dependent decrease
same,"expression of the other cytokines tested (IFNγ, IL-10, and IL-17)",[1]; unstimulated and restimulated cells,no difference
same,TNF-α secretion after restimulation with PMA and ionomycin,[1]; versus (11R)-Scrambled,no difference
same,"TNF-α secretion, unstimulated tumor infiltrating cells",[1]; versus (11R)-Scrambled,reduced
